# Values quoted from earlier work as cited in patent publication EP3277282B1 (Istanbul Universitesi Rektorlugu, priority 2015, dated 2016).
# How the values were obtained:
# [1] = given to human by oral route
structure (smiles),measurement,setting,value
"Cc1nc(Nc2ncc(C(=O)Nc3c(C)cccc3Cl)s2)cc(N2CCN(CCO)CC2)n1 [Dasatinib, N-(2-chloro-6-methylphenyl)-2-[[6-[4-(2-hydroxyethyl)-1-piperazinyl]-2-methyl]-4-pyrimidinyl]amino]-5-thiazolecarboxamide mono-hydrate]","solubility in ethanol, methanol and organic solvents",,soluble
same,systemic side effects,[1],bleeding in the intestines
